Patent US20130165440A1, “JAK1 Inhibitors” (EXELIXIS, INC., priority 2010, published 2013)

Biological target: T1, recombinant JAK1 enzyme (Homo sapiens, UniProt P23458)
T1 construct: 8 nM of recombinant JAK1 enzyme (Insect expressed: V866-K1155); host or cells: insect cells
Assay: JAK1 Kinase Assay (luciferase-luciferin-coupled chemiluminescence, ATP consumption)
Assay type: biochemical
Settings: 8 nM JAK1 (V866-K1155), 30 μM IRS-1 peptide (Y608), 2 μM ATP, 2 hours ambient temperature, KinaseGlo; read-out: JAK1 IRS-1tide Chemilum (IC50)
Protocol: JAK1 Kinase Assay Used to Test Compounds
JAK1 Kinase activity was measured as the percent of ATP consumed following the kinase reaction using luciferase-luciferin-coupled chemiluminescence. The reaction was conducted in white medium binding 384-well microtiter plates. The kinase reaction were initiated by combining test compounds, 8 nM of recombinant JAK1 enzyme (Insect expressed: V866-K1155), 30 μM of IRS-1 peptide (Y608) and 2 μM ATP in buffer containing 20 mM Hepes (pH 7.5), 10 mM MgCl2, 0.01% Brij, 5% glycerol and 1 mM DTT in a 20 μL volume. The reaction mixture was incubated at ambient temperature for 2 hours. Following the kinase reaction, a 20 μL aliquot of KinaseGlo was added to stop the reaction and measure remaining ATP via detection of chemiluminescence using the Envison reader. Total ATP consumption was limited to 25-60%.

T1 sequence (P23458 865-1154 limits assumed): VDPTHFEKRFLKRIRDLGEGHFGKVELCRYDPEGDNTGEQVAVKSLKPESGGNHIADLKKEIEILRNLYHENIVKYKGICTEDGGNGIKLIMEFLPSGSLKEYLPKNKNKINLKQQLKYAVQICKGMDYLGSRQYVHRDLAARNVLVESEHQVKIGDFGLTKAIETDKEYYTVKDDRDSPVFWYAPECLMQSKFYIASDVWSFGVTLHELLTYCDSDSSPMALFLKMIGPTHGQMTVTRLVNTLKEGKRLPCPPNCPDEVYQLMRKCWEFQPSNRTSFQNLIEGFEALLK

Row | Compound | IC50 [nM]
1 | CNc1nnc(-c2ccc(-c3nnc(Nc4cc(C(F)(F)F)cc(C(F)(F)F)c4)c4ccccc34)cc2)s1 [Compound 1, N-[3,5-bis(trifluoromethyl)phenyl]-4-{4-[5-(methylamino)-1,3,4-thiadiazol-2-yl]phenyl}phthalazin-1-amine] | 2000 to 30000
2 | CC(=O)Nc1ccc(-c2nnc(Nc3cc(C(F)(F)F)cc(C(F)(F)F)c3)c3ccccc23)cc1 [Compound 28, N-[4-(4-{[3,5-bis(trifluoromethyl)phenyl]amino}phthalazin-1-yl)phenyl]acetamide] | 500 to 1000
3 | CC(=O)c1cccc(-c2nnc(Nc3cc(C(F)(F)F)cc(C(F)(F)F)c3)c3ccccc23)c1 [Compound 50, 1-[3-(4-{[3,5-bis(trifluoromethyl)phenyl]amino}phthalazin-1-yl)phenyl]ethanone] | 2000 to 30000
4 | COC(=O)c1ccc(-c2nnc(Nc3cc(C(F)(F)F)cc(C(F)(F)F)c3)c3ccccc23)cc1 [Compound 66, methyl 4-(4-{[3,5-bis(trifluoromethyl)phenyl]amino}phthalazin-1-yl)benzoate] | 150 to 500
5 | COC(=O)c1ccc(-c2nnc(Nc3cccc(N(C)C)c3)c3ccccc23)cc1 [Compound 63, methyl 4-(4-{[3-(dimethylamino)phenyl]amino}phthalazin-1-yl)benzoate] | 2000 to 30000
6 | COC(=O)c1ccc(-c2nnc(Nc3cccc(C(C)C)c3)c3cnccc23)cc1 [Compound 57, methyl 4-(4-{[3-(1-methylethyl)phenyl]amino}pyrido[3,4-d]pyridazin-1-yl)benzoate] | 500 to 1000
7 | O=C(NCCN1CCOCC1)c1ccc(-c2nnc(Nc3cc(C(F)(F)F)cc(C(F)(F)F)c3)c3ccccc23)cc1 [Compound 49, 4-(4-{[3,5-bis(trifluoromethyl)phenyl]amino}phthalazin-1-yl)-N-(2-morpholin-4-ylethyl)benzamide] | 500 to 1000
8 | Cc1n[nH]c2cc(-c3nnc(Nc4cc(C(F)(F)F)cc(C(F)(F)F)c4)c4ccccc34)ccc12 [Compound 56, N-[3,5-bis(trifluoromethyl)phenyl]-4-(3-methyl-1H-indazol-6-yl)phthalazin-1-amine] | 150 to 500
9 | COC(=O)c1ccc(-c2nnc(Nc3cccc(C(F)(F)F)c3)c3ccccc23)cc1 [Compound 58, methyl 4-(4-{[3-(trifluoromethyl)phenyl]amino}phthalazin-1-yl)benzoate] | ≤ 150
10 | COC(=O)c1ccc(-c2nnc(Nc3cc(NCCCN(C)C)cc(C(F)(F)F)c3)c3ccccc23)cc1 [Compound 8, methyl 4-(4-{[3-{[3-(dimethylamino)propyl]amino}-5-(trifluoromethyl)phenyl]amino}phthalazin-1-yl)benzoate] | 150 to 500
